The values below come from patent US20240189287A1, “PERIPHERALLY RESTRICTED CB1 RECEPTOR BLOCKERS AND USES THEREOF” (BIONANOSIM (BNS) LTD, priority 2021, published 2024).

Data set [1] addresses T1, CB1 receptor (Mus musculus (Mouse), UniProt P47746). Briefly: CB1 receptor radioligand binding assay, [3H]CP-55,940 displacement, mouse brain membranes. As to conditions: mouse (m) CB1 receptor; read-out: CB1R Ki (nM) (m). The procedure: (§1) Radioligand binding assays: Binding affinity was determined by a radioligand binding assay. The different BB8-conjugates binding to CB1 and CB2 receptors was assessed in competition displacement assays using [^3H]CP-55.940 as the radioligand and crude membranes from mouse brain for CB1 receptor and human kidney cells for CB2 receptor.
(§2) CB1 receptor binding assay: Mouse brain membranes were used as the source material for CB1 receptors. The displacement of specifically bound tritiated CP-55.940 from these membranes using a standard filtration assay was used to determine the Ki values for the test compounds. Briefly. 20 μg of protein was incubated for 1 h at 30° C. in the presence of 0.5 nM [^3H]CP-55,940 and various concentrations (10^−5M-10^−11M) of test compound/control, final volume of 1 mL. The incubation was terminated by rapid filtration and washing, and the amount of specifically bound [^3H]CP-55,940 was determined. Briefly, membranes with bound [^3H]CP-55,940 were separated and washed from free ligand by vacuum filtration, adsorbing the membrane onto a Whatman glass microfiber filter paper ([…], Cat #1821271). Finally, the Whatman filter paper with adsorbed membranes was cut and placed in scintillation liquid (Ultima Gold) for 1 h at 25° C. followed by a β counter reading of bound [^3H]CP-55,940 radioligand. All data were in triplicates with Ki values determined using GraphPad Prism 7.02 analysis software. […] In some cases, membranes from human source were used to determine CB1 receptor binding affinity.

The target of data set [2] is CB1 receptor (Homo sapiens (Human), UniProt P21554). Briefly: CB1 receptor radioligand binding assay, membranes from human source. The note with it: human (h) CB1 receptor; read-out: CB1R Ki (nM) (h). The procedure:
as §1, §2

Data set [3] is described as follows: Tissue distribution: brain, plasma and liver levels after oral dosing. It counts as in vivo, C57BL/6J mice. The note with it: male, C57BL/6J, mouse, in vivo, po, 10 mg/kg. The procedure:
Tissue distribution and pharmacokinetics: Tissue levels of antagonist: 3 male C57BL/6J mice (7-9 weeks, PO group) were used in this study. Mice were fasted prior to administration of test article and had access to food 4 hours post dosing. Appropriate amount of test article was accurately weighted and mixed with the appropriate volume of vehicle to get a clear oral solution. The formulation was prepared on the day of dosing, and mice were dosed via oral gavage up to 4 hr after formulation was prepared. After 1 hour, mice were scarified and about 200 μL blood was collected from cardiac puncture followed by plasma preparation. Brain and liver were removed and further processed. Dose formulation and sample analysis was performed by LC-MS/MS method.
The peripherality of selected BB8 conjugates (BNS) was evaluated in vivo measuring their respective brain, plasma, and liver levels 1 hr following 10 mg/kg oral administration.

The target in the next data set is CB2 receptor (Homo sapiens (Human), UniProt P34972). Briefly: CB2 receptor radioligand binding assay, [3H]CP-55,940 displacement, human kidney membranes. The note with it: read-out: hCB2R Ki. The procedure: as §1
CB2 receptor binding assay: Human kidney membranes were used as the source material for CB2 receptors. The displacement of specifically bound tritiated CP-55,940 from these membranes using a standard filtration assay was used to determine the Ki values for the test compounds. Briefly, 1.25 μg of protein was incubated for 1.5 h at 30° C. in the presence of 0.5 nM [^3H]CP-55,940 and various concentrations (10^−5M-10^−11M) of test compound/control, final volume of 1 mL. The incubation was terminated by rapid filtration and washing, and the amount of specifically bound [^3H]CP-55,940 was determined. Briefly, membranes with bound [^3H]CP-55,940 were separated and washed from free ligand by vacuum filtration, adsorbing the membrane onto a Whatman glass microfiber filter paper ([…], Cat #1821271). Finally, the Whatman filter paper with adsorbed membranes was cut and placed in scintillation liquid (Ultima Gold) for 1 h at 25° C. followed by a β counter reading of bound [^3H]CP-55,940 radioligand. All data were in triplicates with Ki values determined using GraphPad Prism 7.02 analysis software.

Data set [4] has as its target T1, CB1 receptor. Briefly: [35S]GTPγS binding assay for CB1 receptor, mouse brain membranes. As to conditions: nature of binding: agonist/antagonist/inverse agonist. It counts as biochemical. The procedure:
For CB1 receptor-mouse brains were dissected and P2 membranes prepared and resuspended at ˜2 μg protein/μL in 1 ml assay buffer (50 mM Tris HCl, 9 mM MgCl2, 0.2 mM EDTA, 150 mM NaCl; pH 7.4). Ligand-stimulated [^35S]GTPγS binding was assayed as described previously (Tam et al., JCI 2010). Briefly, membranes (10 μg protein) were incubated in assay buffer containing 100 μM GDP, 0.05 nM [^35S]GTPγS, test compounds at various concentrations (CP55940/Rimonabant as controls and test compounds for BB8 conjugates), and 1.4 mg/mL fatty acid-free BSA in siliconized glass tubes. Membranes with bound ligand ([^35S]GTPγS) were separated from free ligand by vacuum filtration and were analyzed using β counter as described above. Non-specific binding was determined using 10 μM GTPS (cold GTP). Basal binding was assayed in the absence of the tested compound and in the presence of GDP.

The test system of the next data set is P-gp (MDR1, ABCB1). Briefly: MDR1-MDCK II cell permeation assay (bi-directional permeability, P-gp efflux). It counts as in vitro ADME. The note with it: dog; for Papp at 2.5 h, 2 μM: A to B. The procedure:
(§3) Test and reference compounds were diluted with transport buffer (HBSS with 10 mM Hepes, pH 7.4) from stock solution to a concentration of 2 μM (DMSO<1%) and applied to the apical or basolateral side of the cell monolayer. Permeation of the test compounds from A to B direction or B to A direction was determined in duplicate with/without P-gp inhibitor (GF120918, 10 μM). […] The plate was incubated for 2.5 hours in CO2 incubator at 37±1° C., with 5% CO2 at saturated humidity without shaking. In addition, the efflux ratio of each compound was also determined. Test and reference compounds were quantified by LC-MS/MS analysis based on the peak area ratio of analyte/IS.
(§4) The in vitro bi-directional permeability across MDR1-MDCKII cells including P-glycoprotein (Pgp, ABCB1) efflux in the presence and absence of a P-gp inhibitor is an indicator as to the tendency of an orally administered compound to penetrate the brain.

The next data set deals with MDR1-MDCKII cells. The data set is described as above. It counts as in vitro ADME. The procedure: as §3, §4
For a further data set, the system named is HepG2 Cells. Briefly: Cell Viability Assay in HepG2 Cells at 72 h. It counts as cell-based, human. The note with it: HepG2, 72 h. The procedure:
The liver plays a central role in transforming and clearing chemicals, and therefore is susceptible to toxicity of these agents. BNS808, BNS822 and other selected compounds were tested in the HepG2 assay using […] to evaluate cytotoxicity.

The target in the next data set is CYP 2D6 (Homo sapiens (Human), UniProt P10635). Briefly: CYP inhibition in human liver microsomes. It counts as in vitro ADME. As to conditions: CYP isozyme 2D6, standard inhibitor. The procedure: To evaluate the in vitro CYP inhibition of BNS808 and BNS822, the compounds were tested in human liver microsomes that are rich in drug metabolizing enzymes, including CYPs 1A2, 2C9, 2C19, 2D6, 3A4.
On the technique in general: Microsomes from liver hold many membrane-bound enzymes, among them those of drug oxidation.

Where [5] appears, read: MDCK-MDR1, pH 7.4, with GF120918, 10 μM, efflux ratio in the presence of P-gp inhibitor GF120918, read-out: MDR1 B:A/A:B (+P-gp inhibitor).
[6] abbreviates: MDCK-MDR1, pH 7.4, efflux ratio, without P-gp inhibitor, read-out: MDR1 B:A/A:B.

Like-named read-outs stand apart in the source and are kept apart here.

T1 sequence (P47746 whole entry): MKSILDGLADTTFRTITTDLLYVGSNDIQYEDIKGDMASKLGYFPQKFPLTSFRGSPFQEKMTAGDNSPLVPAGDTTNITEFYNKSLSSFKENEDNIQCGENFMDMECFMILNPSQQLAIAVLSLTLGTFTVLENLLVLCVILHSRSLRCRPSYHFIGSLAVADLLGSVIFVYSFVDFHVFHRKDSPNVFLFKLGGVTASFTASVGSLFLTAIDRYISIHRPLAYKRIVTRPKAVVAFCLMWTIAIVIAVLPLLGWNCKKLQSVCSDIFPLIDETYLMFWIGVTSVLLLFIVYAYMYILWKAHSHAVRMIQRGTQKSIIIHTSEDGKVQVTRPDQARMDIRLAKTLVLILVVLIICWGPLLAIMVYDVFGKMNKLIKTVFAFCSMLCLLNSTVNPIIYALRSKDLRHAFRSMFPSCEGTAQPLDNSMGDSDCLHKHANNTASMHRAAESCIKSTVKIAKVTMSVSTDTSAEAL
Chain of CB2 receptor (P34972 whole entry): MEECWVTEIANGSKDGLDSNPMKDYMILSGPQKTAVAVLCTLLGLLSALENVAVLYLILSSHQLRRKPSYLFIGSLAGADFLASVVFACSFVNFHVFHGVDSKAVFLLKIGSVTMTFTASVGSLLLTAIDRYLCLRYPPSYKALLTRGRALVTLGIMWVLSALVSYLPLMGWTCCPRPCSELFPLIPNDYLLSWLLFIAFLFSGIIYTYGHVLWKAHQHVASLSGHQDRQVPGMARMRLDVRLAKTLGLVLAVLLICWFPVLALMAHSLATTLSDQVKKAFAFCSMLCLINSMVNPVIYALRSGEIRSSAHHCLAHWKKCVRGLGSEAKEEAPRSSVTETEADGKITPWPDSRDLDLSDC
Chain of CB1 receptor (Homo sapiens (Human), UniProt P21554) (P21554 whole entry): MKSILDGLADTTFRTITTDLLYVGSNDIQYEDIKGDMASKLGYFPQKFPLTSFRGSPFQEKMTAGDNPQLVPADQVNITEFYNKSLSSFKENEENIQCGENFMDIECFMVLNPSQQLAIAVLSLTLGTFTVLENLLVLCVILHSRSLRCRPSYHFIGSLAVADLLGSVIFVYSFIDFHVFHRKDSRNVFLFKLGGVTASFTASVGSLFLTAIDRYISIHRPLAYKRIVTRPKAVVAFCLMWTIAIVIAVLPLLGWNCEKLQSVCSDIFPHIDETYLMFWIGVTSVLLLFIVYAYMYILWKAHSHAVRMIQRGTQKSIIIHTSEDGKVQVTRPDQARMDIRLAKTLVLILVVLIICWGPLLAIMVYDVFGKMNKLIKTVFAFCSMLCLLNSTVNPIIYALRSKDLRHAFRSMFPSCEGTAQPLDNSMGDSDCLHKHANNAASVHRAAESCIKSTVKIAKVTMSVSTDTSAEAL
Chain of CYP 2D6 (P10635 whole entry): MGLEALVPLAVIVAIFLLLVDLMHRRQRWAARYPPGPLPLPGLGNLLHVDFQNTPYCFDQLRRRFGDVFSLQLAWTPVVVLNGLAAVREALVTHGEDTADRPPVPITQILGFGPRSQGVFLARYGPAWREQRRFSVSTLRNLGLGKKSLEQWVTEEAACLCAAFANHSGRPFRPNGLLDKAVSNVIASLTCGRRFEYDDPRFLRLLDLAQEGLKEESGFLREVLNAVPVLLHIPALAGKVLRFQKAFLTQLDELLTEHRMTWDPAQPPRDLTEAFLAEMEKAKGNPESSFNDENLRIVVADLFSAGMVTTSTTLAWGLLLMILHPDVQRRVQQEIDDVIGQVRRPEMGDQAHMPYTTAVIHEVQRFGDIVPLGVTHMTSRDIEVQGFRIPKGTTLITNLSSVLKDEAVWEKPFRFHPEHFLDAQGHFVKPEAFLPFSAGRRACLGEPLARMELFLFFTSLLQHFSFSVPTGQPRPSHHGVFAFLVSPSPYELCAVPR

As to `O=C(NC1CCCOc2c1nn(-c1ccccc1Cl)c2-c1ccc(Cl)cc1)c1nc[nH]n1` (centres unmarked) [BNS801, N-[2-(2-chlorophenyl)-3-(4-chlorophenyl)-5,6,7,8-tetrahydrooxepino[3,2-c]pyrazol-8-yl]-1H-1,2,4-triazole-3-carboxamide], the values for the Ki at CB1 receptor [1] and at CB1 receptor [2] were 805 nM and 232 nM, respectively.

With `O=C(NC1CCCOc2c1nn(-c1ccccc1Cl)c2-c1ccc(Cl)cc1)c1cccnc1` (centres unmarked) [BNS803, N-[2-(2-chlorophenyl)-3-(4-chlorophenyl)-5,6,7,8-tetrahydrooxepino[3,2-c]pyrazol-8-yl]pyridine-3-carboxamide], the Kp (commonly the ratio of the level in a tissue or fluid to that in plasma or blood) at 1 h in data set [3] turned out to be 1.6. Moreover, the Ki (usually the dissociation constant of the complex between target and ligand, obtained from inhibition or displacement) was 22.4 nM at CB1 receptor [1], above 9110 nM on CB2 receptor and 6.48 nM at CB1 receptor [2]. The “mCB1R GTPγ[^35S] (activity)” value at CB1 receptor [4] is recorded as “Inverse agonist”. For the same compound, the efflux ratio at 2.5 h, 2 μM with P-gp (MDR1, ABCB1) (setting [5]) was 0.63; with P-gp (MDR1, ABCB1) (setting [6]) it was 0.77. Further, the Papp (in general, a coefficient for how fast a substance crosses the barrier) at 2.5 h, 2 μM in the data set with P-gp (MDR1, ABCB1) (MDCK-MDR1, pH 7.4) is 13.2 ×10⁻⁶ cm/s. Besides, the P-gp substrate entry in the data set on MDR1-MDCKII cells was “No”. Further, the “Rank Papp” value in the data set with MDR1-MDCKII cells is “High”.

`CC(C)(Oc1ccc(Cl)cc1)C(=O)NC1CCCOc2c1nn(-c1ccccc1Cl)c2-c1ccc(Cl)cc1` (centres unmarked) [BNS804, 2-(4-chlorophenoxy)-N-[2-(2-chlorophenyl)-3-(4-chlorophenyl)-5,6,7,8-tetrahydrooxepino[3,2-c]pyrazol-8-yl]-2-methyl-propanamide]: the Ki at CB1 receptor [1] was determined as 1.16 nM; on CB2 receptor, 5700 nM; on CB1 receptor [2] it was 1.96 nM. Moreover, on CB1 receptor [4], the “mCB1R GTPγ[^35S] (activity)” value is recorded as “Antagonist”.

In the case of `O=C(NC1CCCOc2c1nn(-c1ccccc1Cl)c2-c1ccc(Cl)cc1)c1cnccn1` (centres unmarked) [BNS805, N-[2-(2-chlorophenyl)-3-(4-chlorophenyl)-5,6,7,8-tetrahydrooxepino[3,2-c]pyrazol-8-yl]pyrazine-2-carboxamide], the Ki was 77.8 nM at CB1 receptor [1], 8340 nM at CB2 receptor and 8.75 nM at CB1 receptor [2]. Also, the “mCB1R GTPγ[^35S] (activity)” value at CB1 receptor [4] is reported as “Inverse agonist”. The efflux ratio at 2.5 h, 2 μM in the data set on P-gp (MDR1, ABCB1) (setting [5]) was found to be 0.55; in the data set with P-gp (MDR1, ABCB1) (setting [6]), 0.82. For the same compound, the Papp at 2.5 h, 2 μM with P-gp (MDR1, ABCB1) (MDCK-MDR1, pH 7.4) was 4.93 ×10⁻⁶ cm/s. The P-gp substrate result in the data set with MDR1-MDCKII cells is listed as “Partial”. For the same compound, the “Rank Papp” value with MDR1-MDCKII cells is recorded as “Moderate”.

Take `O=C(NC1CCCOc2c1nn(-c1ccccc1Cl)c2-c1ccc(Cl)cc1)c1ncc[nH]1` (centres unmarked) [BNS806, N-[2-(2-chlorophenyl)-3-(4-chlorophenyl)-5,6,7,8-tetrahydrooxepino[3,2-c]pyrazol-8-yl]-1H-imidazole-2-carboxamide]: the Ki on CB1 receptor [1] was 165 nM; at CB2 receptor, above 9110 nM; on CB1 receptor [2], 23.7 nM. The “mCB1R GTPγ[^35S] (activity)” value on CB1 receptor [4] is “Antagonist; In. Agonist >[c]”.

Regarding `Cc1ccc(S(=O)(=O)NC2CCCOc3c2nn(-c2ccccc2Cl)c3-c2ccc(Cl)cc2)cc1` (centres unmarked) [BNS807, N-[2-(2-chlorophenyl)-3-(4-chlorophenyl)-5,6,7,8-tetrahydrooxepino[3,2-c]pyrazol-8-yl]-4-methyl-benzenesulfonamide], the Ki is 10 nM on CB1 receptor [1], 1650 nM at CB2 receptor and 1.4 nM on CB1 receptor [2]. For the same compound, the “mCB1R GTPγ[^35S] (activity)” value on CB1 receptor [4] was “Inverse agonist”. Also, the IC50 (as a rule, the point on the concentration scale where inhibition reaches its midpoint) in the data set with HepG2 Cells (Homo sapiens, read-out: Relative IC50) was determined as 18000 nM.

For the compound `CS(=O)(=O)NC1CCCOc2c1nn(-c1ccccc1Cl)c2-c1ccc(Cl)cc1` (centres unmarked) [BNS809, N-[2-(2-chlorophenyl)-3-(4-chlorophenyl)-5,6,7,8-tetrahydrooxepino[3,2-c]pyrazol-8-yl]methanesulfonamide], the values for the Ki at CB1 receptor [1], on CB2 receptor and on CB1 receptor [2] were 33.8 nM, above 9110 nM and 7.7 nM, respectively. Besides, the “mCB1R GTPγ[^35S] (activity)” value at CB1 receptor [4] is given as “Antagonist”.

On to `CS(=O)(=O)N1CCC(C(=O)NC2CCCOc3c2nn(-c2ccccc2Cl)c3-c2ccc(Cl)cc2)CC1` (centres unmarked) [BNS815, N-[2-(2-chlorophenyl)-3-(4-chlorophenyl)-5,6,7,8-tetrahydrooxepino[3,2-c]pyrazol-8-yl]-1-methylsulfonyl-piperidine-4-carboxamide], for which the Ki on CB1 receptor [1] turned out to be 18 nM. The Ki on CB2 receptor came out at 6310 nM. Further, at CB1 receptor [4], the “mCB1R GTPγ[^35S] (activity)” value was “Antagonist”. Further, the efflux ratio at 2.5 h, 2 μM in the data set with P-gp (MDR1, ABCB1) (setting [5]) worked out at 0.63. Besides, the Papp at 2.5 h, 2 μM in the data set on P-gp (MDR1, ABCB1) (MDCK-MDR1, pH 7.4) came out at 10.1 ×10⁻⁶ cm/s. Besides, in the data set on MDR1-MDCKII cells, the P-gp substrate result was “P-gp substrates and Yes”; the “Rank Papp” value is reported as “High”. In the data set with HepG2 Cells (read-out: Absolute IC50), the IC50 is 55900 nM.

In the case of `C=C[C@H]1C[N@@]2CC[C@H]1C[C@@H]2[C@@H](O)c1ccnc2ccc(OC)cc12` [Quinidine, reference compound], the % Inhibition (in general, the relative decrease from the control value, in per cent) at CYP 2D6 is given as 96.2%.
